This note sets out measurements from US20040006236A1, “Diaminopropionic acid derivatives” (priority 1999, published 2004).

The target of test [1] is T1, LFA-1 binding to immobilized ICAM-1 (Homo sapiens, UniProt P05107+P20701).
T1 construct: made in house; host or cells: transfected 293 cells (LFA-1)
Kind of test: LFA-1/ICAM-1 protein-protein assay (solid-phase ELISA). Summed up: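 Human 5dICAM-Ig (ICAM-1 extracellular domain–IgG Fc) coated on plates; membrane-bound LFA-1 from transfected 293 cells (280 ng/mL) added with compound in Mn2+-containing HEPES buffer pH 7.2, 2 h at 37° C. Bound LFA-1 detected via anti-β2 antibody and HRP/TMB at 450 nm; IC50s determined.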
(In general: ELISA stands for enzyme-linked immunosorbent assay.)

Test [2] deals with T lymphocyte proliferation (C57BI/6 spleen cells with irradiated BALB/c spleen cells). The experiment in a line: Mixed lymphocyte reaction (MLR), one-way. The class given is cell-based, mice. Summed up: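 One-way murine MLR: C57BI/6 responder splenocytes proliferate against irradiated BALB/c stimulators while exposed to serially diluted antagonists in supplemented RPMI1640 for 3 days. Proliferation read as [3H]-thymidine uptake over a final 6 h pulse (0.5 μCi/well), scintillation counted.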

The mark [3] stands for this setting: read-out: LFA-1/ICAM-1 Protein-Protein Assay IC50.
Where [4] appears, read: Mus musculus, T-lymphocyte; read-out: MLR IC50.
The mark [5] stands for this setting: LFA-1/ICAM-1 Protein-Protein Assay IC50.
The mark [6] stands for this setting: Mus musculus, T-lymphocyte, read-out: MLR IC50.

Structures are written as SMILES. Read-outs that look alike come from different tables or passages of the source.

T1 sequence (P20701 26-1170): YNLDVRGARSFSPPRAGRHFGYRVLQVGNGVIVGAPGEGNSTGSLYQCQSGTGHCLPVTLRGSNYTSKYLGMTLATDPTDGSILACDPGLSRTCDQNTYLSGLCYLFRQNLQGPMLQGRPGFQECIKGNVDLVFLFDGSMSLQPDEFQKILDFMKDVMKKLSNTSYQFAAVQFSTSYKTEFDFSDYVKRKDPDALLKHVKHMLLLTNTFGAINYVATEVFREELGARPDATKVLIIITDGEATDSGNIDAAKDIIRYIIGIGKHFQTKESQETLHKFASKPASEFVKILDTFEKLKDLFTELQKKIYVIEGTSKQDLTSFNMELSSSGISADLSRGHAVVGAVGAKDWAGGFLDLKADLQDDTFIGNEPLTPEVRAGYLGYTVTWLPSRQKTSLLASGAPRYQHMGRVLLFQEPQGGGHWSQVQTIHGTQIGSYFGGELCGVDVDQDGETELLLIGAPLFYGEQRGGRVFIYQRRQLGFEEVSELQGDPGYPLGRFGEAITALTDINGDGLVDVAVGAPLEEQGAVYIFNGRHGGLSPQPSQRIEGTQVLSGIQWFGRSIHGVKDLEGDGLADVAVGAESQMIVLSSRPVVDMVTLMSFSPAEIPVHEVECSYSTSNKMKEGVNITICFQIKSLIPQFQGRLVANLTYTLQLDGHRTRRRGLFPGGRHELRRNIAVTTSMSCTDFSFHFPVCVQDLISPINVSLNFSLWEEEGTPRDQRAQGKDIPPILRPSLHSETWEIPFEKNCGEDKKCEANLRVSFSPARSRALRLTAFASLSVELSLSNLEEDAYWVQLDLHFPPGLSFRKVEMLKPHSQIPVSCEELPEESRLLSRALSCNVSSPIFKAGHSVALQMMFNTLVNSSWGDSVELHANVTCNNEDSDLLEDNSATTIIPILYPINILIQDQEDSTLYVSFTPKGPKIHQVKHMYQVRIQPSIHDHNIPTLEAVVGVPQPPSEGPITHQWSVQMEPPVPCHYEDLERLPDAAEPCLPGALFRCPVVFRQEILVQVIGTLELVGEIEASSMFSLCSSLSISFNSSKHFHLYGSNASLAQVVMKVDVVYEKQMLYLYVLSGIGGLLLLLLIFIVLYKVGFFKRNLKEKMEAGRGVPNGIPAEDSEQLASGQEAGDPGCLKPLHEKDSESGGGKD
T1 sequence (P05107 23-769): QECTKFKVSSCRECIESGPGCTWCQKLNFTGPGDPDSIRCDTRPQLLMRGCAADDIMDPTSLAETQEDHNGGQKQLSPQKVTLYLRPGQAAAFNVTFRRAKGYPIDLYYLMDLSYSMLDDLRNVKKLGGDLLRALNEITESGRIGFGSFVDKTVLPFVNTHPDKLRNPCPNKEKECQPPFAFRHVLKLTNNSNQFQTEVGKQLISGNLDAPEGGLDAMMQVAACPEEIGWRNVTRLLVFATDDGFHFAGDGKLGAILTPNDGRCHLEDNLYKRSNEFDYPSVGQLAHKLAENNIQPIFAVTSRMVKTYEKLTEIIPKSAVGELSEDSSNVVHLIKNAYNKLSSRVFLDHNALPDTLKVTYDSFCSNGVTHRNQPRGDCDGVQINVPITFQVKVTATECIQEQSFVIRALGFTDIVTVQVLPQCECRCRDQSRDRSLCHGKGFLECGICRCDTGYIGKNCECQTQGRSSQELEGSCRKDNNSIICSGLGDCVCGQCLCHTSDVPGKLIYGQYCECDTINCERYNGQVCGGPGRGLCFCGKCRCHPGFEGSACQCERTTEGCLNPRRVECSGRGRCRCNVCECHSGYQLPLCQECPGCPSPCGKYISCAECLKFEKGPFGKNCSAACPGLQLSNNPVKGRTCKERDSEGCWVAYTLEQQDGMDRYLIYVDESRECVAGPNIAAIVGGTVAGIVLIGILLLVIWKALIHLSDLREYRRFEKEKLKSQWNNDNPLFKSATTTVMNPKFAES

As to `COc1cscc1C(=O)NC[C@H](NC(=O)c1ccc(C(=O)NCc2cccc(O)c2)cc1Cl)C(=O)O` [Example 257], the IC50 was 0.0012 µM in test [1] (setting [3]) and 1.4 µM in test [2] (setting [4]).

Turning to `CC(=O)NC[C@H](NC(=O)c1ccc(C(=O)NCc2cccc(O)c2)cc1Cl)C(=O)O` [Example 193], the IC50 in test [1] (setting [3]) was determined as 0.0007 µM; in test [2] (setting [4]), 0.83 µM.

For `O=C(NCc1cccc(O)c1)c1ccc(C(=O)N[C@@H](CNC(=O)c2cnc3ccccc3c2)C(=O)O)c(Cl)c1` [Example 183], the IC50 in test [1] (setting [3]) stood at 0.012 µM; in test [2] (setting [4]), 4.6 µM.

Take `O=C(NCc1cccc(O)c1)c1cc(Cl)c(C(=O)N[C@@H](CNC(=O)c2cc(O)cc(O)c2)C(=O)O)c(Cl)c1` [Example 345, N-[2,6-dichloro-4-[[[(3-hydroxyphenyl)methyl]amino]carbonyl]benzoyl]-3-(3,5-dihydroxybenzoylamino)-L-alanine]: the IC50 in test [1] (setting [3]) turned out to be 0.0002 µM; in test [2] (setting [4]), 0.002 µM.

Take `O=C(NC[C@H](NC(=O)c1c(F)cccc1Cl)C(=O)O)c1ccc2[nH]nnc2c1` [Example 226]: in test [1] (setting [3]), the IC50 was found to be 0.047 µM.

For `O=C(CSc1ccncc1)NC[C@H](NC(=O)c1ccc(C(=O)NCc2cccc(O)c2)cc1Cl)C(=O)O` [Example 90], the results for the IC50 in test [1] (setting [3]) and in test [2] (setting [4]) were 0.0024 µM and 1.45 µM, respectively.

With `O=C(NCc1cccc(O)c1)c1ccc(C(=O)N[C@@H](CNC(=O)c2ccno2)C(=O)O)c(Cl)c1` [Example 256], the IC50 in test [1] (setting [3]) stood at 0.0008 µM; in test [2] (setting [4]) it was 0.525 µM.

With `O=C(NCc1cccc(O)c1)c1cc(Cl)c(C(=O)N[C@@H](CNC(=O)c2cc(F)cc(F)c2)C(=O)O)c(Cl)c1` [Example 344, N-[2,6-dichloro-4-[[[(3-hydroxyphenyl)methyl]amino]carbonyl]benzoyl]-3-[(3,5-difluorobenzoyl)amino]-L-alanine], the IC50 in test [1] (setting [3]) was 0.0003 µM; in test [2] (setting [4]), 0.034 µM.

In the case of `O=C(O)c1cccc(C(=O)NC[C@H](NC(=O)c2ccc(C(=O)NCc3cccc(O)c3)cc2Cl)C(=O)O)c1` [Example 297], the IC50 in test [1] (setting [3]) is 0.0008 µM; in test [2] (setting [4]) it was 1.65 µM.

Consider `Cc1cc(C(=O)NCc2cccc(O)c2)cc(C)c1C(=O)N[C@@H](CNC(=O)c1cc(F)cc(F)c1)C(=O)O` [Example 337, N-[2,6-dimethyl-4-[[[(3-hydroxyphenyl)methyl]amino]carbonyl]benzoyl]-3-(3,5-difluorobenzoylamino)-L-alanine], for which the IC50 in test [1] (setting [3]) worked out at 0.0037 µM; in test [2] (setting [4]), 0.059 µM.

On to `O=C(NCc1cccc2[nH]ncc12)c1ccc(C(=O)N[C@@H](CNC(=O)c2cccs2)C(=O)O)c(Cl)c1` [Example 327, N-[2-chloro-4-[[[(1H-indazol-4-yl)methyl]amino]carbonyl]benzoyl]-3-(thiophene-2-carbonyl)amino-L-alanine], for which the IC50 in test [1] (setting [3]) was 0.0018 µM; in test [2] (setting [4]), 0.18 µM.

For `O=C(NCc1cccc(O)c1)c1cc(Cl)c(C(=O)N[C@@H](CNC(=O)c2cccs2)C(=O)O)c(Cl)c1` [Example 342, N-[2,6-dichloro-4-[[[(3-hydroxyphenyl)methyl]amino]carbonyl]benzoyl]-3-[(thiophene-2-carbonyl)amino]-L-alanine], the IC50 in test [1] (setting [3]) turned out to be 0.0016 µM; in test [2] (setting [4]), 0.027 µM.

In the case of `COc1c(C(=O)NC[C@H](NC(=O)c2ccc(C(=O)NCc3cccc(O)c3)cc2Cl)C(=O)O)csc1Cl` [Example 258, N-[2-chloro-4-[[[(3-hydroxyphenyl)methyl]amino]carbonyl]benzoyl]-3-(5-chloro-4-methoxythiophene-3-carbonyl)amino-L-alanine], the IC50 in test [1] (setting [3]) came out at 0.0022 µM; in test [2] (setting [4]), 3.75 µM.

As for `O=C(NCc1cccc(O)c1)c1ccc(C(=O)N[C@@H](CNC(=O)c2ccc3ccccc3c2)C(=O)O)c(Cl)c1` [Example 179], the IC50 stood at 0.0036 µM in test [1] (setting [3]) and 5.4 µM in test [2] (setting [4]).

For `O=C(NCc1cccc2[nH]ccc12)c1ccc(C(=O)N[C@@H](CNC(=O)c2cccs2)C(=O)O)c(Br)c1` [Example 329], the IC50 was found to be 0.0027 µM in test [1] (setting [3]) and 0.42 µM in test [2] (setting [4]).

Regarding `O=C(NCc1cccc(O)c1)c1ccc(C(=O)N[C@@H](CNC(=O)c2cc3ccccc3s2)C(=O)O)c(Cl)c1` [Example 175], the results for the IC50 in test [1] (setting [3]) and in test [2] (setting [4]) were 0.0026 µM and 4 µM, respectively.

Take `O=C(NCc1cccc(O)c1)c1ccc(C(=O)N[C@@H](CNC(=O)c2cc(F)cc(F)c2)C(=O)O)c(Cl)c1` [Example 252, N-[2-chloro-4-[[[(3-hydroxyphenyl)methyl]amino]carbonyl]benzoyl]-3-(3,5-difluorobenzoyl)amino-L-alanine]: the IC50 amounted to 0.0009 µM in test [1] (setting [3]) and 0.34 µM in test [2] (setting [4]).

For the compound `O=C(CC1c2ccccc2-c2ccccc21)NC[C@H](NC(=O)c1ccc(C(=O)NCc2cccc(O)c2)cc1Cl)C(=O)O` [Example 88], the IC50 in test [1] (setting [3]) was determined as 0.0018 µM; in test [2] (setting [4]) it was 12.5 µM.

Consider `N[C@@H](Cc1ccccc1)C(=O)NC[C@H](NC(=O)c1ccc(C(=O)NCc2cccc(O)c2)cc1Cl)C(=O)O` [Example 199], for which the figures for the IC50 in test [1] (setting [3]) and in test [2] (setting [4]) were 0.0074 µM and 19 µM, respectively.

`O=C(NCc1cccc(O)c1)c1ccc(C(=O)N[C@@H](CNC(=O)c2ccc3ncsc3c2)C(=O)O)c(Cl)c1` [Example 177]: the IC50 in test [1] (setting [3]) was found to be 0.001 µM; in test [2] (setting [4]), 0.95 µM.

On to `O=C(Cc1cccs1)NC[C@H](NC(=O)c1ccc(C(=O)NCc2cccc(O)c2)cc1Cl)C(=O)O` [Example 84], for which the IC50 in test [1] (setting [3]) was determined as 0.001 µM; in test [2] (setting [4]), 1.3 µM.

For `NC1(C(=O)NC[C@H](NC(=O)c2ccc(C(=O)NCc3cccc(O)c3)cc2Cl)C(=O)O)CCCC1` [Example 263], the IC50 in test [1] (setting [3]) was found to be 0.0042 µM; in test [2] (setting [4]), 2.1 µM.

Turning to `Nc1cccn(CC(=O)NC[C@H](NC(=O)c2ccc(C(=O)NCc3cccc(O)c3)cc2Cl)C(=O)O)c1=O` [Example 266], the IC50 in test [1] (setting [3]) stood at 0.0046 µM; in test [2] (setting [4]), 3.05 µM.

Turning to `O=C(NCc1cccc(O)c1)c1ccc(C(=O)N[C@@H](CNC(=O)C2CCNCC2)C(=O)O)c(Cl)c1` [Example 262], the IC50 was 0.0048 µM in test [1] (setting [3]) and 1.8 µM in test [2] (setting [4]).

Take `O=C(NCc1cccc(O)c1)c1ccc(C(=O)N[C@@H](CNC(=O)c2csnn2)C(=O)O)c(Cl)c1` [Example 254]: the IC50 in test [1] (setting [3]) is 0.0007 µM; in test [2] (setting [4]) it was 0.46 µM.

For the compound `Cc1cc(C(=O)NCc2cccc(O)c2)cc(Cl)c1C(=O)N[C@@H](CNC(=O)c1cccs1)C(=O)O` [Example 338, N-[2-chloro-4-[[[(3-hydroxyphenyl)methyl]amino]carbonyl]-6-methylbenzoyl]-3-[(thiophene-2-carbonyl)amino]-L-alanine], the IC50 in test [1] (setting [3]) stood at 0.0015 µM; in test [2] (setting [4]), 0.021 µM.

Take `O=C(Cc1ccc2ccccc2c1)NC[C@H](NC(=O)c1ccc(C(=O)NCc2cccc(O)c2)cc1Cl)C(=O)O` [Example 87]: the IC50 stood at 0.0048 µM in test [1] (setting [3]) and 1.3 µM in test [2] (setting [4]).

Consider `O=C(NCc1cccc(O)c1)c1ccc(C(=O)N[C@@H](CNC(=O)c2cc(=O)c3ccccc3o2)C(=O)O)c(Cl)c1` [Example 187], for which the IC50 in test [1] (setting [3]) was 0.012 µM; in test [2] (setting [4]) it was 2.8 µM.

Regarding `O=C(CCc1cccc(O)c1)c1ccc(C(=O)N[C@@H](CNC(=O)c2cccs2)C(=O)O)c(Cl)c1` [Example 319, N-[2-chloro-4-[1-oxo-3-(3-hydroxyphenyl)propyl]benzoyl]-3-(thiophene-2-carbonyl)amino-L-alanine], the IC50 in test [1] (setting [3]) came to 0.0014 µM; in test [2] (setting [4]), 0.665 µM.

As for `O=C(NCc1cccc(O)c1)c1ccc(C(=O)N[C@@H](CNC(=O)c2cc([N+](=O)[O-])cc([N+](=O)[O-])c2)C(=O)O)c(Cl)c1` [Example 129], the figures for the IC50 in test [1] (setting [5]) and in test [2] (setting [6]) were 0.0042 µM and 3 µM, respectively.

For the compound `O=C(NCc1cccc(O)c1)c1ccc(C(=O)N[C@@H](CNC(=O)c2cccs2)C(=O)O)c(Cl)c1` [Example 303, N-[2-chloro-4-[[[(3-hydroxyphenyl)methyl]amino]carbonyl]benzoyl]-3-(thiophene-2-carbonyl)amino-L-alanine], the IC50 is 0.0005 µM in test [1] (setting [3]) and 0.07 µM in test [2] (setting [4]).

`O=C(NCc1cccc(O)c1)c1ccc(C(=O)N[C@@H](CNC(=O)c2ccoc2)C(=O)O)c(Cl)c1` [Example 259, N-[2-chloro-4-[[[(3-hydroxyphenyl)methyl]amino]carbonyl]benzoyl]-3-(furan-3-carbonyl)amino-L-alanine]: the IC50 was found to be 0.0012 µM in test [1] (setting [3]) and 0.26 µM in test [2] (setting [4]).

Turning to `O=C(CCc1ccccc1)NC[C@H](NC(=O)c1ccc(C(=O)NCc2cccc(O)c2)cc1Cl)C(=O)O` [Example 94], the IC50 was found to be 0.0015 µM in test [1] (setting [3]) and 1.4 µM in test [2] (setting [4]).

`O=C(Cc1ccc([N+](=O)[O-])cc1[N+](=O)[O-])NC[C@H](NC(=O)c1ccc(C(=O)NCc2cccc(O)c2)cc1Cl)C(=O)O` [Example 83]: the IC50 in test [1] (setting [5]) is 0.0023 µM; in test [2] (setting [6]), 0.46 µM.

With `O=C(NCc1cccc(O)c1)c1ccc(C(=O)N[C@@H](CNC(=O)[C@@H]2CCCN2)C(=O)O)c(Cl)c1` [Example 196], the IC50 in test [1] (setting [3]) is 0.0028 µM; in test [2] (setting [4]) it was 5.5 µM.

As to `CC(C)(C)C(=O)NC[C@H](NC(=O)c1ccc(C(=O)NCc2cccc(O)c2)cc1Cl)C(=O)O` [Example 92], the IC50 amounted to 0.0021 µM in test [1] (setting [3]) and 0.9 µM in test [2] (setting [4]).

As to `O=C(CSc1ncccn1)NC[C@H](NC(=O)c1ccc(C(=O)NCc2cccc(O)c2)cc1Cl)C(=O)O` [Example 91], the IC50 in test [1] (setting [3]) amounted to 0.005 µM; in test [2] (setting [4]), 2.45 µM.

On to `O=C(NCc1cccc(O)c1)c1ccc(C(=O)N[C@@H](CNC(=O)c2c3c(nc4ccccc24)CCCC3)C(=O)O)c(Cl)c1` [Example 190], for which, in test [1] (setting [3]), the IC50 came to 0.013 µM.
